Where two headings read alike, the source gives them in different places.
Columns and labels:
recombinant human HER2 = recombinant human HER2 (Homo sapiens, UniProt P04626); assay: SPR binding of captured antibody to HER2 at varying antibody capture levels
Source text: An SPR assay was used to evaluate the mechanism by which an exemplary anti-HER2 biparatopic antibody binds to HER2 ECD; specifically, to understand whether both paratopes of one biparatopic antibody molecule can bind to one HER2 ECD (Cis binding; 1:1 antibody to HER2 molecules) or if each paratope of one biparatopic antibody can bind two different HER2 ECDs (Trans binding; 1:2 antibody to HER2 molecules). […] The correlation between a reduced (slower) off-rate with increasing antibody capture levels (surface density) is an indication of Trans binding (i.e. one antibody molecule binding to two HER2 molecules.
Between 2000 and 4000 RU of anti-human Fc injected at concentration between 5 and 10 μg/ml was immobilized on a CMS chip using standard amine coupling. […] HER2 dilutions were analyzed in duplicate. Sensograms were fit globally to a 1: 1 Langmuir binding model. All experiments were conducted at 25° C.
The following experiment was conducted to compare HER2 binding kinetics (kd, off-rate) of exemplary anti-HER2 ECD2×ECD4 biparatopic antibodies when captured at varying surface densities by SPR.

Thermal stability by DSC = type: physicochemical
Protocol: DSC was performed in the MicroCal™ VP-Capillary DSC (GE Healthcare) using a purified protein sample (anti-HER2 biparatopic antibodies and anti-HER2 biparatopic-ADCs) adjusted to about 0.3 mg/ml in PBS. The sample was scanned from 20 to 100° C. at a 60° C./hr rate, with low feedback, 8 sec filter, 5 min preTstat, and 70 psi nitrogen pressure. The resulting thermogram was analyzed using Origin 7 software.
The DSC was measured before and after SEC purification.

JIMT-1 cells = assay: Cellular staining and location by confocal microscopy at 1, 3 and 16 h; type: cell-based, human; conditions: 200 nM antibody, 1 h, 3 h
Protocol: Cells were gently washed two times with warmed sterile PBS (500 ml/well). Cells were fixed with 250 ml of 10% formalin/PBS solution for 10 min at RT. The fixed cells were washed three times with PBS (500 μl/well), permeabilized with 250 μl/well of PBS containing 0.2% Triton X-100 for 5 min, and washed three times with 500 μl/well PBS. Cells were blocked with 500 μl/well of PBS+5% goat serum for 1 h at RT. […] Cells were washed three times with 500 μl/well of PBS and the coverslips containing fixed cells were then mounted on a slide using Prolong gold anti-fade with DAPI (Life Technologies; # P36931). 60× single images were acquired using Olympus FV1000 Confocal microscope.

HBCx-5 xenograft = assay: Trastuzumab resistant breast cancer PDX, ADC (Example 20); type: in vivo, athymic nude mice; conditions: Day 43
Protocol: Dosing for each group was as follows:
A) IgG control was dosed intravenously with a loading dose of 15 mg/kg on study day 1 and maintenance doses of 10 mg/kg administered on study days 4, 8, 11, 15, 18, 22, and 25
Tumor volume was measured throughout the course of the study, and the mean tumor volume, T/C ratio, number of responders, complete response, and zero residual disease parameters were assessed at day 43.

FaDu xenograft = type: in vivo; conditions: for median survival: study duration 59 days
Protocol: FaDu cells are derived from squamous cell cancer of the head and neck that is HER2 low, non-HER2 gene amplified, HER3+, EGFR+ and highly sensitive to Cisplatin at the MTD.
Tumor cell suspensions were implanted subcutaneously into athymic nude mice. […] Cisplatin was purchased and provided for the study by Charles River Laboratories (Morrisville, N.C.). Animals were treated according to Regimen 1 at Day 1, followed by Regimen 2 on subsequent days as noted in Table A4.

[1] = Kaplan-Meier survival, log-rank test

v4182: monovalent anti-HER2 antibody, pertuzumab Fab on chain A; the OA of Table 11D
kd (1/s) over a range of antibody capture levels (recombinant human HER2): no change in kd values

v9996: monovalent anti-HER2 antibody, pertuzumab Fab with Y96A in VL and T30A/A49G/L69F in VH
DSC post-SEC ΔTm wrt WT (C) (Thermal stability by DSC; after SEC purification, WT = v10013): −0.7 C
DSC pre-SEC ΔTm wrt WT (C) (Thermal stability by DSC; before SEC purification, WT = v10013): −0.2 C
DSC post-SEC Tm (C) (Thermal stability by DSC; one-armed antibody, after SEC purification): 77.2 C
DSC pre-SEC Tm (C) (Thermal stability by DSC; one-armed antibody, before SEC purification): 77.2 C

v4184: bivalent anti-HER2 antibody, pertuzumab Fabs, heterodimeric Fc, pertuzumab analog
cellular staining and location (JIMT-1 cells): pronounced plasma membrane staining at the 1, 3 and 16 h time points

T-DM1
Complete response (>10% baseline regression) (HBCx-5 xenograft): 1/7
Mean TV % change from Baseline (HBCx-5 xenograft): +65%
Mean TV (mm3) (HBCx-5 xenograft): 193 mm3
Responders (TV < 50% of control) (HBCx-5 xenograft): 6/7
T/C (IgG) ratio (HBCx-5 xenograft): 0.21
Zero residual disease (TV < 20 mm3) (HBCx-5 xenograft): 0/7

N.N.[Cl][Pt][Cl] [cisplatin]
RECIST Scores CR(TV < 20 mm^3) (FaDu xenograft; Day 25, animals/group): 0/15
RECIST Scores PD(>20% baseline growth) (FaDu xenograft; Day 25, animals/group): 15/15
RECIST Scores PR(>30% baseline regression) (FaDu xenograft; Day 25, animals/group): 0/15
RECIST Scores SD(neither PD or PR) (FaDu xenograft; Day 25, animals/group): 0/15
Mean TV % Δ from base line (FaDu xenograft; Day 25, regimens of Table A4): (782%)
Treatment/Control Ratio (FaDu xenograft; Day 25, regimens of Table A4): 0.54
Mean TV (FaDu xenograft; Day 25, regimens of Table A4 (antibodies 15 then 10 mg/kg iv; cisplatin 2 mg/kg ip)): 1070 mm^3
Log Rank Summary (survival) vs 6336 (FaDu xenograft; [1]): n/s
Log Rank Summary (survival) vs 6908 (FaDu xenograft; [1]): ★★★ (★★★ = P < 0.001)
Log Rank Summary (survival) vs 10000 (FaDu xenograft; [1]): ★ (★ = P < 0.05)
Median Time to Progression (FaDu xenograft; regimens of Table A4): 8.4 days
median survival (FaDu xenograft): 40 days
median survival (FaDu xenograft; euthanized when tumor volume exceeded 2000 mm^3): 40 days

— patent publication US20200297862A1, “METHODS OF USING BISPECIFIC ANTIGEN-BINDING CONSTRUCTS TARGETING HER2” (Zymeworks Inc., priority 2016, published 2020)
